{"source": "patent US20140330261A1", "about": "“CATHETER FOR PERFORMING PHOTODYNAMIC ABLATION OF CARDIAC MUSCLE TISSUE VIA PHOTOCHEMICAL REACTION” (KEIO UNIVERSITY, priority 2010, published 2014)", "key": {"[1]": {"tested_on": "cardiac muscle tissue of the left auricle", "experiment": "Acute experiment (open-heart surgery) using swine: verification of immediate conduction block by photodynamic therapy", "type": "in vivo", "settings": "10 mg/kg intravenously, irradiation 30 minutes after administration, 663 nm, 5.2 W/cm^2, 208 J/cm^2, irradiation line approximately 30 mm", "description": "Left auricular tissue obtained from a swine (body weight: 15.4 kg) was used as a sample. Talaporfin sodium was used as a photosensitive dye, and it was administered intravenously to the swine at 10 mg/kg of the body weight. The duration until light irradiation after the administration of the photosensitive dye was 30 minutes. Light irradiation was carried out using a semiconductor laser with a central wavelength of 663 nm at a power density of 5.2 W/cm^2, an energy density of 208 J/cm^2, and a spot size of 7 mm Φ. The experiment for verification of immediate conduction block using swine was carried out in accordance with the following procedure. 1. A swine was subjected to open-heart surgery under deep anesthesia and the left auricle was exposed. 2. Three bipolar electrodes were positioned in cardiac muscle tissue of the left auricle. One such electrode was used for electrical stimulation (for conductance) and the two other electrodes were used for potential measurement (A and B). 3. Talaporfin sodium was administered intravenously at 10 mg/kg. 4. The irradiation with a band-like laser beam was carried out in a dotted manner between electrodes for potential measurement 30 minutes after administration to perform photodynamic therapy. 5. The potential of an electrode for potential measurement B was measured during laser beam irradiation. 6. […]"}, "[2]": {"tested_on": "right ventricular tissue isolated from a Wistar rat", "experiment": "Electrical conduction blocking via photodynamic therapy in cardiac muscle tissue extirpated from a rat (ex vivo)", "settings": "4.3 μg/ml in Tyrode's perfusion fluid for 2 hours; 670.8 nm laser, 150 mW/cm^2, 3.5 J/cm^2; 5 minutes after photodynamic therapy", "description": "The right ventricular tissue isolated from a Wistar rat was used as a sample. Talaporfin sodium was used as a photosensitive pigment. Talaporfin sodium was dissolved in a perfusion fluid at 4.3 μg/ml. Tyrode's solutions were used as perfusion fluids ([…] 37° C.). A semiconductor laser with a central wavelength of 670.8 nm was used as an excitation light source, and the irradiation was carried out at 150 mW/cm^2 and 3.5 J/cm^2. An experiment of electric conduction blocking in the cardiac muscle was carried out by the following procedures. 1. The heart was extirpated under deep anesthesia and the right ventricular wall was excised. 2. The excised tissue was subjected to perfusion in a Tyrode's solution comprising talaporfin sodium dissolved therein for 2 hours. 3. Three bipolar electrodes were positioned in cardiac muscle tissue. One such electrode was used for electrical stimulation (for conductance) and the two other electrodes were used for potential measurement (A and B). 4. A band-like laser beam was irradiated to the region between electrodes for potential measurement to perform photodynamic therapy. 5. Potentials at the electrodes for potential measurement A and B were measured during laser irradiation."}}, "data": [{"smiles": "C=Cc1c(C)c2cc3nc(c(CC(=O)N[C@@H](CC(=O)O)C(=O)O)c4[nH]c(cc5nc(cc1[nH]2)C(C)=C5CC)c(C)c4C(=O)O)[C@@H](CCC(=O)O)[C@@H]3C", "note": "[Talaporfin sodium, talaporfin sodium]", "values": [{"measurement": "delay of electric conduction at electrode B after light irradiation", "setting": "[1]", "value": "approximately 35.5 ms"}, {"measurement": "electric conductivity of cardiac muscle tissue at the site irradiated with light after photodynamic therapy", "setting": "[2]", "value": "electric conductivity of cardiac muscle tissue was lost"}]}]}
